Data on three molecules can be found in patent publication US20260273028A1, “PEROXIDASE COMPOSITIONS CONTAINING IMPROVED ENHANCING AGENTS” (FLEN HEALTH PHARMA NV, priority 2022, published 2026).

Common to all, as to format: cell-based
For assay [1], the system named is Pseudomonas aeruginosa ATCC®9027™. The experiment in a line: MIC determination, broth microdilution, GOX+LPO with potentiator candidate. Particulars: P. aeruginosa. The protocol: (§1) The minimum inhibitory concentration (MIC) is defined as the lowest concentration of an antimicrobial agent that results in a complete inhibition of microbial growth (determined via visual evaluation or absorbance measurements) after overnight incubation. This endpoint measurement is used to define the microbial susceptibility towards an antimicrobial agent. Here, the antimicrobial agent is a combination of the natural enzymes GOX+LPO.
(§2) To determine the MIC of the described combinations, a classical broth microdilution assay was used to determine the susceptibility of a series of microbes commonly detected in infected wounds, including (a) the Gram-positive bacterium Staphylococcus aureus ATCC® 6538™ (results shown below), (b) the Gram-negative bacterium Pseudomonas aeruginosa ATCC®9027™ (results shown below), (c) the yeast Candida albicans ATCC®10231™ (results shown below), and (d) the fungus Aspergillus niger ATCC®16404™ (results shown below). In brief, a […] serial dilution of the enzymatic GOX+LPO solution was prepared in a transparent, flat-bottomed 96-well test plate with final concentrations ranging from 0.005 to 0.00000977% (v/v). To each well, a fixed volume of the enzymatic substrate containing 3,3% (w/v) glucose and 0,084% (w/v) potassium iodide, as well as the microbial inoculum with an OD600 of 0.1 was added. In the event the enzyme combination was evaluated in the presence of a potentiator candidate, the latter was added together with the enzymatic substrate in a final concentration ranging from 100 to 0,00125% (v/v). For each combination evaluated, a blank (no addition of microbial inoculum) was included. Positive (inoculum only) and negative (background solution only) were included to evaluate the performance of the test and to select the enzymatic GOX+LPO concentration at which no microbial growth is detected (i.e., absorbance equal to that of the background solution only). Then, the 96-well test plate was incubated for 24 hours at 37° C. (S. aureus, P. aeruginosa and C. albicans) or 25° C. (A. niger). After incubation, the absorbance of each well was measured using a plate spectrophotometer (Spectramax ID3, Molecular Devices). For each combination evaluated, this test was repeated at least 5 times. The collected data were further analyzed in MS Excel. Mean absorbance data were visualized in a table format in which the MIC was highlighted.

The test system of assay [2] is Aspergillus niger ATCC®16404™. Described as above. Particulars: A. niger. How it is done:
as §1, §2

The test system of assay [3] is Staphylococcus aureus ATCC® 6538™. The description is as above. Particulars: S. aureus. The protocol: as §1, §2
Assay [4] deals with Pseudomonas aeruginosa ATCC®9027™. The experiment in a line: Absolute microbial counts in function of enzyme solution concentration. Particulars: for reduction in absolute P. aeruginosa counts compared to reference and guaiacol solution: 0.005%-0.0000391% (v/v) GOX+LPO. The source says:
(§3) Absolute microbial counts in function of concentration of the antimicrobial agent tested are useful to monitor the bactericidal and fungicidal efficacy of that agent.
(§4) To determine the absolute number of live microorganisms in function of different enzyme solution concentrations tested, a classical broth microdilution assay combined with standard CFU enumeration techniques was used to determine the susceptibility of a series of microbes commonly detected in infected wounds, including (a) the Gram-positive bacterium Staphylococcus aureus ATCC® 6538™ (results shown below), (b) the Gram-negative bacterium Pseudomonas aeruginosa ATCC®9027™ (results shown below), (c) the yeast Candida albicans ATCC®10231™ (results shown below), and (d) the fungus Aspergillus niger ATCC®16404™ (results shown below). In brief, the broth microdilution assay was set up as previously described (see 2.1). After incubation, the absolute microbial count at the MIC and following higher concentrations (MICx2, MICx4, and so on) was determined using standard CFU enumeration techniques. For each combination evaluated, this test was repeated at least 5 times. The collected data were further analyzed in MS Excel and expressed as log CFU/ml. Mean results were plotted in function of enzyme solution concentration.

For assay [5], the system named is Aspergillus niger ATCC®16404™. The description is as above. Particulars: 0.005%-0.000156% (v/v) GOX+LPO.
Text: as §3, §4

For assay [6], the system named is P. aeruginosa (ATCC®9027™). In words: Microbial challenge testing in alginogel with GOX+LPO. Particulars: for reduction in absolute P. aeruginosa counts compared to guaiacol in the same concentration: alginogel with GOX+LPO, enhancer 0.0005%; for antimicrobial activity of enhancing candidate only against P. aeruginosa: alginogel without enzymes, highest concentration tested; for reduction in absolute P. aeruginosa counts compared to reference (enzymes only): alginogel, 0.0075% GOX+LPO. The protocol: To determine the ability of an antimicrobial agent to elicit an antimicrobial preserving efficacy in a gel environment, a microbiological challenge test can be performed. Here, the antimicrobial agent is a combination of the natural enzymes GOX+LPO. […] Microbial challenge testing was performed according to the method described in the European Pharmacopoeia current version chapter 5.1.3 ‘Efficacy of antimicrobial preservation’, but with adapted time points (0, 10, 20, 30, 40, 50, 60, 70 and 80 min instead of 0, 2, 7, 14 and 28 days). In brief, for every enhancing agent to be evaluated, a lab-scale alginogel (based on the Flaminal® formulation, but without the original enhancer guaiacol) including 0.0075% GOX+LPO (1:1) was prepared according to standard practices. Enhancing agents were added to the alginogel in a final concentration ranging from 0.01 to 0,00025% (v/w). As a reference, an alginogel including 0.0075% GOX+LPO (1:1) without the addition of any enhancing agent was included (designated as: enzymes only). As a control, an alginogel without both GOX+LPO (1:1) enzyme solution and enhancing agent (designated as: empty gel) as well as an alginogel only containing the enhancing agent only (designated as: enhancing candidate only) were included. After preparation, a homogenous sample of 10 g was transferred into a 50 ml conical tube for each alginogel to be evaluated and microorganism to be tested. For each test microorganism, including S. aureus (ATCC®6538™), P. aeruginosa (ATCC®9027™), C. albicans (ATCC®10231™) and A. niger (ATCC®16404 ™), a microbial suspension of about 10^8 CFU/ml was prepared in sterile diluent (buffered sodium chloride-peptone solution). Then, the 50 ml conical tubes containing the alginogel samples to be evaluated were inoculated with 100 μl of the designated inoculum. At the start (time point 0) and after 0, 10, 20, 30, 40, 50, 60, 70 and 80 min, the number of viable microorganisms per gram product (expressed as CFU/g) was determined by transferring a sample of 0.5 g of the product into a 15 ml conical tube containing 4.5 ml of sterile diluent and applying general dilution and plate count techniques. For each combination evaluated, this test was repeated at least 1-3 times. The collected data were further analyzed in MS Excel. Mean absolute counts (expressed as log CFU/g) were visualized in a graph.

[7] abbreviates: enhancer 0,1%, 0,005%-0.000625% (v/v) GOX+LPO.
Where [8] appears, read: enhancer 1%, 0,005%-0.000156% (v/v) GOX+LPO.

Each structure is given as a SMILES string.

Turning to `N[C@@H](CO)C(=O)O` [Serine, serine], the “MIC: GOX+LPO enzyme solution needed to completely inhibit growth” value (shortened to “MIC … to completely inhibit growth”) was 0.000625 % (v/v) in assay [1] (enhancer 0.0025-0.00125%); 0.000625 % (v/v) in assay [1] (enhancer 0.01-0.005%); 0.000156 % (v/v) in assay [2] (enhancer 1%-0.01%); 0.0000391 % (v/v) in assay [3] (enhancer 0.0025% to 0.00125%); 0.0000391 % (v/v) in assay [3] (enhancer 0.01% to 0.005%); ≤ 0.0000977 % (v/v) in assay [3] (enhancer 10%). The “increase in MIC compared to reference or guaiacol solution” value in assay [1] (enhancer 0.0025-0.00125%) is 2 ×; in assay [1] (enhancer 0.01-0.005%), 2 ×; in assay [3] (enhancer 0.0025% to 0.00125%) it was 2 ×; in assay [3] (enhancer 0.01% to 0.005%) it was 2 ×; in assay [3] (enhancer 10%), ≥ 6 ×. For the same molecule, the “increase in MIC compared to reference” value in assay [2] (enhancer 1%-0.01%) is 2 ×. Besides, the “reduction in absolute P. aeruginosa counts compared to reference and guaiacol solution” value in assay [4] (enhancer 0.0025-0.00125%) and in assay [4] (enhancer 0.01-0.005%) was “stronger reduction” throughout. Further, the “reduction in absolute A. niger counts compared to reference” value (“reduction in absolute A. niger counts” below) in assay [5] (enhancer 1-0.01%) is “stronger reduction”. Besides, the “reduction in absolute P. aeruginosa counts compared to guaiacol in the same concentration” value in assay [6] is on record as “faster complete reduction”. For the same molecule, in assay [6], the “antimicrobial activity of enhancing candidate only against P. aeruginosa” value (“antimicrobial activity … against P. aeruginosa” for short) is given as “no antimicrobial activity”. For the same molecule, the figures for the “reduction in absolute P. aeruginosa counts compared to reference (enzymes only)” value in assay [6] (enhancer 0.00125-0.0005%) and in assay [6] (enhancer 0.0025%) were “faster complete reduction” and “immediate entire reduction”, respectively.
On to `NC(=O)CC[C@H](N)C(=O)O` [Glutamine, glutamine], for which the “MIC … to completely inhibit growth” value is 0.000625 % (v/v) in assay [1] (enhancer 0,1%), 0.000156 % (v/v) in assay [1] (enhancer 1%), 0.000156 % (v/v) in assay [2] (enhancer 1%-0.01%) and 0.0000391 % (v/v) in assay [3] (enhancer 1% to 0.01%). Further, the figures for the “increase in MIC compared to reference” value in assay [1] (enhancer 0,1%), in assay [1] (enhancer 1%) and in assay [2] (enhancer 1%-0.01%) were 2 ×, 8 × and 2 ×, respectively. The “increase in MIC compared to reference or guaiacol solution” value in assay [3] (enhancer 1% to 0.01%) was found to be 2 ×. The “reduction in absolute P. aeruginosa counts compared to reference” value in assay [4] (setting [7]) and in assay [4] (setting [8]) was “stronger reduction” throughout. In assay [5] (enhancer 1-0.01%), the “reduction in absolute A. niger counts” value was “stronger reduction”. Further, in assay [6], the “reduction in absolute P. aeruginosa counts compared to guaiacol in the same concentration” value was “faster complete reduction”. In addition, the “antimicrobial activity … against P. aeruginosa” value in assay [6] was “no antimicrobial activity”. Moreover, the “reduction in absolute P. aeruginosa counts compared to reference (enzymes only)” value in assay [6] (enhancer 0.00125-0.0005%) is “faster complete reduction”; in assay [6] (enhancer 0.0025%), “immediate entire reduction”.
Regarding `NC(=O)C[C@H](N)C(=O)O` [Asparagine, asparagine], the “MIC … to completely inhibit growth” value in assay [1] (enhancer 0,1%) is given as 0.000625 % (v/v); in assay [1] (enhancer 1%), 0.000156 % (v/v); in assay [2] (enhancer 1%-0.05%), 0.000156 % (v/v); in assay [3] (enhancer 0.5% to 0.01%), 0.0000391 % (v/v). Also, the “increase in MIC compared to reference” value was 2 × in assay [1] (enhancer 0,1%), 8 × in assay [1] (enhancer 1%) and 2 × in assay [2] (enhancer 1%-0.05%). Besides, the “increase in MIC compared to reference or guaiacol solution” value in assay [3] (enhancer 0.5% to 0.01%) is given as 2 ×. Moreover, the “reduction in absolute P. aeruginosa counts compared to reference” value in assay [4] (setting [7]) and in assay [4] (setting [8]) was “stronger reduction” throughout. Moreover, in assay [5] (enhancer 1-0.05%), the “reduction in absolute A. niger counts” value was “stronger reduction”. In assay [6], the “antimicrobial activity … against P. aeruginosa” value was “no antimicrobial activity”. The entries for the “reduction in absolute P. aeruginosa counts compared to reference (enzymes only)” value in assay [6] (enhancer 0.0025%) and in assay [6] (enhancer 0,00125%) were “immediate entire reduction” and “faster complete reduction”, respectively.
